Experimental data taken from patent publication US10279046B2, “Eye drop composition for treating ocular inflammatory disease and preparation method therefor” (CATHOLIC UNIVERSITY INDUSTRY-ACADEMIC COOPERATION FOUNDATION, priority 2013, dated 2019).

Test system: corneal damage model (alkali burn)
Assay: Corneal damage model (alkali burn) with NaOH: corneal edema and inflammatory cells (hematoxylin-eosin and F4/80 staining)
Type: in vivo, rat (Sprague Dawley)
Conditions: 0.1 mg/ml (0.01%) sulfasalazine, twice a day
Method: A white […] (Sprague Dawley, 300 g, male) was used as an animal, and a corneal damage model (alkali burn) due to a chemical drug using NaOH was used. A paper disk of 3 mm was dipped in a 0.1 N NaOH solution (50 ul), and the cornea was covered with the paper disk for 30 seconds to induce the cornea to be damaged. The inflammation reaction in the cornea was confirmed by performing hematoxylin eosin staining and immunostaining on the F4/80 antigen. The analysis of corneal edema was performed using a ratio of corneal epithelium and corneal stroma.
After the damage to the cornea, the solubilized sulfasalazine and the sulfasalazine-hyaluronic acid eye drop prepared in the Example 1 were administered twice a day, respectively. 0.1% hyaluronic acid was administered to the control group.
Three days after the damage to the cornea, the eyeball was removed and a paraffin block was prepared to make a tissue slice, and the hematoxylineosin staining and the immunostaining on the F4/80 antigen as a macrophage marker were performed.
The analysis on the inflammatory cells was performed with respect to the number of macrophages (F4/80 positive cells) present in the cornea.

With `O=C(O)c1cc(/N=N/c2ccc(S(=O)(=O)Nc3ccccn3)cc2)ccc1O` [sulfasalazine solution, sulfasalazine] the “number of macrophages (F4/80 positive cells) present in the cornea” value (after inducement of inflammation 31.5±4.9) was 21.3±5.5 and the “ratio of corneal epithelium and stroma (corneal edema)” value (three days after damage, normal 4.6±1, after inducement of inflammation 10±2.5) was 7.1±2.1.
